Assay results taken from patent US12157730B2, “Heteroaryl derivative, method for producing same, and pharmaceutical composition comprising same as effective component” (VORONOI INC., priority 2019, dated 2024).

molecular target: T1, Ba/F3 cell EGFR Exon20 ins NPH (Homo sapiens, UniProt P00533, INS773NPH); test: Ba/F3 cell proliferation suppression, EGFR Exon20 ins NPH; type: cell-based; conditions: GI50 class; Ba/F3 cell line with NPH inserted at Exon20 of EGFR; 72 hours
T1 construct: expressed in transfected cells; host or cells: Ba/F3
Summary of the method: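 After 72 h compound exposure (twelve 3-fold steps, 0.3 nM–50 um final), live cells were measured by CellTiter-Glo luminescence and growth expressed as % of control to derive GI50. Cells were seeded at 3000–5000 per well a day earlier; Ba/F3 medium contained IL-3; three repeats.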

| Structure (SMILES) | Ba/F3 (NPH) Activity |
| --- | --- |
| C=CC(=O)Nc1cc(Nc2cc(N3OCC[C@@H]3c3ccc(Cl)c(F)c3)ncn2)c(OC)cc1N1CCC(N2CCN(CC)CC2)CC1 [Example 262, N-(5-((6-((R)-3-(4-chloro-3-fluorophenyl)isoxazolidine-2-yl)pyrimidine-4-yl)amino)-2-(4-(4-ethylpiperazine-1-yl)piperidine-1-yl)-4-methoxyphenyl) acrylamide] | A (GI50 < 50 nM) |
| C=CC(=O)Nc1cc(Nc2cc(N3OCC[C@@H]3Cc3ccccc3)ncn2)c(OC)cc1N1CCC(N2CCOCC2)CC1 [compound 965, N-(5-((6-((S)-3-benzylisoxazolidine-2-yl)pyrimidine-4-yl)amino)-4-methoxy-2-(4-morpholinopiperidine-1-yl)phenyl)acrylamide] | A (GI50 < 50 nM) |
| C=CC(=O)Nc1cc(Nc2cc(N3OCC[C@@H]3c3cccc(OC)c3)ncn2)c(OC)cc1N1CCC(N2CC[C@@H](N(C)C)C2)CC1 [compound 728, N-(2-(4-((R)-3-(dimethylamino)pyrolidine-1-yl)piperidine-1-yl)-4-methoxy-5-((6-((R)-3-(3-methoxyphenyl)isoxazolidine-2-yl)pyrimidine-4-yl)amino)phenyl)acrylamide] | A (GI50 < 50 nM) |
| C=CCN1CCN(C2CCN(c3cc(OC)c(Nc4cc(N5OCC[C@@H]5c5cc(F)cc(F)c5)ncn4)cc3NC(=O)C=C)CC2)CC1 [Example 87, N-(2-(4-(4-allylpiperazine-1-yl)piperidine-1-yl)-5-((6-((R)-3-(3,5-difluorophenyl)isoxazolidine-2-yl)pyrimidine-4-yl)amino)-4-methoxyphenyl) acrylamide] | A (GI50 < 50 nM) |
| C=CC(=O)Nc1cc(Nc2cc(N3OCC[C@@H]3c3ccc(F)cc3F)ncn2)c(OC)cc1N1CCC(N2CCN(C3COC3)CC2)CC1 [Example 197, N-(5-((6-((R)-3-(2,4-difluorophenyl)isoxazolidine-2-yl)pyrimidine-4-yl)amino)-4-methoxy-2-(4-(4-(oxetane-3-yl)piperazine-1-yl)piperidine-1-yl)phenyl)acrylamide] | A (GI50 < 50 nM) |
| C=CC(=O)Nc1cc(Nc2cc(N3OCC[C@@H]3c3cc(F)ccc3F)ncn2)c(OC)cc1N1CCC(N2C[C@H](C)N(C3CC3)C[C@@H]2C)CC1 [Example 171, N-(2-(4-((2S,5S)-4-cyclopropyl-2,5-dimethylpiperazine-1-yl)piperidine-1-yl)-5-((6-((R)-3-(2,5-difluorophenyl)isoxazolidine-2-yl)pyrimidine-4-yl)amino)-4-methoxyphenyl) acrylamide] | A (GI50 < 50 nM) |
| C=CC(=O)Nc1cc(Nc2cc(N3OCC[C@@H]3c3ccc(F)c(Cl)c3)ncn2)c(OC)cc1N1CCC(N2CCN(CC)CC2)CC1 [Example 263, N-(5-((6-((R)-3-(3-chloro-4-fluorophenyl)isoxazolidine-2-yl)pyrimidine-4-yl)amino)-2-(4-(4-ethylpiperazine-1-yl)piperidine-1-yl)-4-methoxyphenyl) acrylamide] | A (GI50 < 50 nM) |
| C=C(F)C(=O)Nc1cc(Nc2cc(N3OCC[C@@H]3c3cc(F)cc(F)c3)ncn2)c(OC)cc1N1CCC(N2CCN(C3CC3)CC2)CC1 [Example 120, N-(2-(4-(4-cyclopropylpiperazine-1-yl)piperidine-1-yl)-5-((6-((R)-3-(3,5-difluorophenyl)isoxazolidine-2-yl)pyrimidine-4-yl)amino)-4-methoxyphenyl)-2-fluoroacrylamide] | C (500 nM ≤ GI50 < 5000 nM) |
| C=CC(=O)Nc1cc(Nc2cc(N3OCC[C@@H]3c3cccc(C)c3F)ncn2)c(OC)cc1N1CCC(N2C[C@H](C)N(C3CC3)C[C@@H]2C)CC1 [Example 123, N-(2-(4-((2S,5S)-4-cyclopropyl-2,5-dimethylpiperazine-1-yl)piperidine-1-yl)-5-((6-((R)-3-(2-fluoro-3-methylphenyl)isoxazolidine-2-yl)pyrimidine-4-yl)amino)-4-methoxyphenyl) acrylamide] | A (GI50 < 50 nM) |
| C=CC(=O)Nc1cc(Nc2cc(N3OCC[C@@H]3c3ccc(Cl)c(Cl)c3)ncn2)c(OC)cc1N1CCC(N2CCOCC2)CC1 [compound 683, N-(5-((6-((R)-3-(3,4-dichlorophenyl)isoxazolidine-2-yl)pyrimidine-4-yl)amino)-4-methoxy-2-(4-morpholinopiperidine-1-yl)phenyl)acrylamide] | A (GI50 < 50 nM) |
| C=CC(=O)Nc1cc(Nc2cc(N3OCC[C@@H]3c3cccc(Cl)c3C)ncn2)c(OC)cc1N1CCC(N2CCO[C@@H](C)C2)CC1 [compound 529, N-(5-((6-((R)-3-(3-chloro-2-methylphenyl)isoxazolidine-2-yl)pyrimidine-4-yl)amino)-4-methoxy-2-(4-((S)-2-methylmorpholino)piperidine-1-yl)phenyl) acrylamide] | A (GI50 < 50 nM) |
| C=CC(=O)Nc1cc(Nc2cc(N3OCC[C@@H]3c3ccccc3)ncn2)c(OC)cc1N1CCC(N2CCN(C3CCCC3)CC2)CC1 [Example 97, N-(2-(4-(4-cyclopentylpiperazine-1-yl)piperidine-1-yl)-4-methoxy-5-((6-((R)-3-phenylisoxazolidine-2-yl)pyrimidine-4-yl)amino)phenyl) acrylamide] | A (GI50 < 50 nM) |
| C=CC(=O)Nc1cc(Nc2cc(N3OCC[C@@H]3c3ccc(F)c(F)c3)ncn2)c(OC)cc1N1C2CC1CN(C)C2 [compound 542, N-(5-((6-((R)-3-(3,4-difluorophenyl)isoxazolidine-2-yl)pyrimidine-4-yl)amino)-4-methoxy-2-(3-methyl-3,6-diazabicyclo [3.1.1]heptane-6-yl)phenyl)acrylamide] | B (50 nM ≤ GI50 < 500 nM) |
| C=CC(=O)Nc1cc(Nc2cc(N3OCC[C@@H]3c3ccc(F)c(Cl)c3F)ncn2)c(OC)cc1N1CCC(N2CCN(C3CC3)CC2)CC1 [Example 168] | A (GI50 < 50 nM) |
| C=CC(=O)Nc1cc(Nc2cc(N3OCC[C@@H]3c3ccc(Cl)c(F)c3)ncn2)c(OC)cc1N1CCC(N2CCN(C3COC3)CC2)CC1 [Example 83, N-(5-((6-((R)-3-(4-chloro-3-fluorophenyl)isoxazolidine-2-yl)pyrimidine-4-yl)amino)-4-methoxy-2-(4-(4-(oxetane-3-yl)piperazine-1-yl)piperidine-1-yl)phenyl)acrylamide] | A (GI50 < 50 nM) |
| C=CC(=O)Nc1cc(Nc2cc(N3OCC[C@@H]3c3ccc(Cl)c(Cl)c3)ncn2)c(OC)cc1N1C[C@@H]2C[C@H]1CN2C [compound 684, N-(5-((6-((R)-3-(3,4-dichlorophenyl)isoxazolidine-2-yl)pyrimidine-4-yl)amino)-4-methoxy-2-((1S,4S)-5-methyl-2,5-diazabicyclo[2.2.1]heptane-2-yl)phenyl) acrylamide] | A (GI50 < 50 nM) |
| C=CC(=O)Nc1cc(Nc2cc(N3OCC[C@@H]3c3cc(F)ccc3F)ncn2)c(OC)cc1N1CCC(N2CC3CCC(C2)O3)CC1 [compound 820, N-(2-(4-(8-oxa-3-azabicyclo[3.2.1]octan-3-yl)piperidine-1-yl)-5-((6-((R)-3-(2,5-difluorophenyl)isoxazolidine-2-yl)pyrimidine-4-yl)amino)-4-methoxyphenyl) acrylamide] | A (GI50 < 50 nM) |
| C=CC(=O)Nc1cc(Nc2cc(N3OCC[C@@H]3c3cccc(Cl)c3)ncn2)c(OC)cc1N1CCN(C(C)=O)CC1 [compound 464, N-(2-(4-acetylpiperazine-1-yl)-5-((6-((R)-3-(3-chlorophenyl)isoxazolidine-2-yl)pyrimidine-4-yl)amino)-4-methoxyphenyl) acrylamide] | A (GI50 < 50 nM) |
| C=CC(=O)Nc1cc(Nc2cc(N3OCC[C@@H]3c3cc(F)cc(F)c3)ncn2)c(OC)cc1N1CCC(N2CCN(C)C[C@H]2C)CC1 [compound 761, N-(5-((6-((R)-3-(3,5-difluorophenyl)isoxazolidine-2-yl)pyrimidine-4-yl)amino)-2-(4-((R)-2,4-dimethylpiperazine-1-yl)piperidine-1-yl)-4-methoxyphenyl) acrylamide] | A (GI50 < 50 nM) |
| C=CC(=O)Nc1cc(Nc2cc(N3OCC[C@@H]3c3cccc(F)c3F)ncn2)c(OC)cc1N1CCN(CC)CC1 [compound 297, N-(5-((6-((R)-3-(2,3-difluorophenyl)isoxazolidine-2-yl)pyrimidine-4-yl)amino)-2-(4-ethylpiperazine-1-yl)-4-methoxyphenyl) acrylamide] | A (GI50 < 50 nM) |
| C=CC(=O)Nc1cc(Nc2cc(N3OCC[C@@H]3Cc3cccc(F)c3)ncn2)c(OC)cc1N1CCC(N2CCN(C3CC3)[C@H](C)C2)CC1 [compound 994, N-(2-(4-((R)-4-cyclopropyl-3-methylpiperazine-1-yl)piperidine-1-yl)-5-((6-((S)-3-(3-fluorobenzyl)isoxazolidine-2-yl)pyrimidine-4-yl)amino)-4-methoxyphenyl) acrylamide] | A (GI50 < 50 nM) |
| C=CC(=O)Nc1cc(Nc2cc(N3OCC[C@@H]3Cc3cccnc3)ncn2)c(OC)cc1N1CCC(N2C[C@H]3C[C@@H]2CO3)CC1 [compound 987, N-(2-(4-((1R,4R)-2-oxa-5-azabicyclo [2.2.1]heptane-5-yl)piperidine-1-yl)-4-methoxy-5-((6-((S)-3-(pyridine-3-ylmethyl)isoxazolidine-2-yl)pyrimidine-4-yl)amino)phenyl)acrylamide] | C (500 nM ≤ GI50 < 5000 nM) |
| C=CC(=O)Nc1cc(Nc2cc(N3OCC[C@@H]3c3cc(F)cc(Cl)c3)ncn2)c(OC)cc1N1CCN(C)CC1 [compound 537, N-(5-((6-((R)-3-(3-chloro-5-fluorophenyl)isoxazolidine-2-yl)pyrimidine-4-yl)amino)-4-methoxy-2-(4-methylpiperazine-1-yl)phenyl)acrylamide] | A (GI50 < 50 nM) |
